Laboratory results as given in US20080009487A1, “Treatment of athersclerotic disease” (priority 2006, published 2008).
Entries after “also recorded” stand apart in the source; their conditions may differ.

Key:
[1] = tested on: C. pneumoniae; settings: C. pneumoniae-infected rabbits, previously published study; cited from earlier work
[2] = tested on: C. pneumoniae; experiment: Rabbit model of atherosclerosis accelerated by C. pneumoniae infection, high cholesterol diet; type: in vivo; settings: C. pneumoniae-infected rabbits; for infectious burden of Chlamydia in the vasculature (in words): versus placebo
Procedure: Thirty received three separate C. pneumoniae inoculations performed at 3-week intervals. Similarly, 15 control rabbits were intranasally inoculated with 1 mL of normal saline under the same conditions. [table] Nineteen weeks after beginning antibiotic treatment, the rabbits were euthanized. After euthanasia, hearts were examined histologically and by immunofluorescence. Animal serum samples were also examined for seropositivity to the infecting organism. […] In the current study, the time after infection and treatment with either azithromycin or rifalazil was increased by seven weeks, a more rigorous test for the durability of treatment. Consistent with previously published work, C. pneumoniae-infected rabbits accumulated more plaque than non-infected rabbits (p=0.08).

[3] = tested on: C. pneumoniae; experiment: Potency against C. pneumoniae relative to roxithromycin; type: cell-based; settings: fold more potent than roxithromycin
Source text: (§1) Both preclinical and clinical lines of evidence support the use of rifalazil in the methods of the invention. […] In addition, based on overall safety data in animals and man, we believe that a dose of rifalazil can safely be administered, tolerated, and will likely result in clinical benefit through its anti-Chlamydia action in these patients.

[4] = type: physicochemical
Procedure: Rifalazil is a highly lipophilic molecule having limited solubility in water at physiological pH (approximately 200 ng/mL). Evidence of the highly lipophilic behavior of the molecule is illustrated in the partition coefficient (n-octanol:water) of between 70, 569 and over 900,000 in different experiments (Log P range; 4.9-5.9).

[5] = tested on: Chlamydia; experiment: Phase 2 study in men with non-gonococcal urethritis; type: in vivo; settings: single oral dose
Source text: as §1

[6] = Degradation to 25-desacetyl derivative under acidic and basic conditions; type: physicochemical
Source text: Rifalazil degrades to a 25-desacetyl derivative under both acidic and basic conditions. Typical of ester hydrolysis, the degradation in highly alkaline solutions is rapid while at an acidic pH, e.g., pH 1, the degradation at room temperature is slower, approximately 6% in one hour.

| partition coefficient (n-octanol:water) [4] | degradation to 25-desacetyl derivative ([6]; acidic pH 1, room temperature, in one hour) | degradation (ester hydrolysis) ([6]; highly alkaline solutions) | SMILES | prevention of Chlamydia-induced plaque formation (in words) [1] | infectious burden of Chlamydia in the vasculature (in words) [2] | potency against C. pneumoniae relative to roxithromycin [3] [times] | patients in whom Chlamydia was eradicated [5] [%] | plaque area stenosis compared with placebo-treated animals (in words) [2] |
| --- | --- | --- | --- | --- | --- | --- | --- | --- |
| – | – | – | CC[C@H]1OC(=O)[C@H](C)[C@@H](O[C@H]2C[C@@](C)(OC)[C@@H](O)[C@H](C)O2)[C@H](C)[C@@H](O[C@@H]2O[C@H](C)C[C@H](N(C)C)[C@H]2O)[C@](C)(O)C[C@@H](C)CN(C)[C@H](C)[C@@H](O)[C@]1(C)O [azithromycin, reference compound] | significant effect in preventing Chlamydia-induced plaque formation | reduced the infectious burden of Chlamydia in the vasculature | – | – | – |
| 70, 569-900,000 | approximately 6% | rapid | CO[C@H]1/C=C/O[C@@]2(C)Oc3c(C)c(O)c4c(=O)c(c5oc6cc(N7CCN(CC(C)C)CC7)cc(O)c6nc-5c4c3C2=O)NC(=O)/C(C)=C\C=C\[C@H](C)[C@H](O)[C@@H](C)[C@@H](O)[C@@H](C)[C@H](OC(C)=O)[C@@H]1C [rifalazil, 3′-hydroxy-5′-(4-isobutyl-1-piperazinyl)benzoxazinorifamycin] | – | reduced C. pneumoniae burden; also recorded: reduced the infectious burden of Chlamydia in the vasculature | 2000 | > 86 | reduced C. pneumoniae burden and plaque area stenosis; also recorded: showed a trend in producing significantly reduced plaque area stenosis |
